Reference: patent US12054498B2, “Heteroaromatic macrocyclic ether chemotherapeutic agents” (Nuvalent, Inc., priority 2020, dated 2024)

Key:
ROS1-G2032R = target: T1, ROS1-G2032R (Homo sapiens, UniProt P08922, G2032R); experiment: Biochemical kinase assay, ROS1-G2032R kinase domain; settings: apparent inhibitory constant, Morrison equation; ATP 2 mM in substrate solution; read-out: ROS1-G2032R Ki^app
T1 construct: purchased SignalChem R14-12BG
How it was run: (§1)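 Compounds, as 100-fold DMSO stocks, were dispensed first, then substrate mix was added (ATP 2 mM, AQT0101 26 μM, in 50 mM HEPES pH 7.5/10 mM MgCl2). Reactions ran at 30 °C with fluorescence logged every 2 min over 120 min. Apparent inhibition constants came from fitting rates to Morrison's tight-binding equation.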

ALK-wt = target: T2, ALK-wt (Homo sapiens, UniProt Q9UM73); experiment: Biochemical kinase assay, ALK-wt kinase domain; settings: apparent inhibitory constant, Morrison equation; ATP 2 mM in substrate solution; read-out: ALK-wt Ki^app
T2 construct: purchased Carna 08-518
T2 sequence (Q9UM73 1116-1392 limits assumed): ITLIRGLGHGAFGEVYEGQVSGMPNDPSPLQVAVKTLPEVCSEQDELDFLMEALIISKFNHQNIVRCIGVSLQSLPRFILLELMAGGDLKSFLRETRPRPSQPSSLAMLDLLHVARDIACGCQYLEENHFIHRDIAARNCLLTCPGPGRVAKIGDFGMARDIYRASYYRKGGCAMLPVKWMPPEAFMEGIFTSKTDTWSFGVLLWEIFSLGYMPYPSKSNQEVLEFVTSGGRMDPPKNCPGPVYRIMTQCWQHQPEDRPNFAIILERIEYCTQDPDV
How it was run: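 Apparent Ki values come from fitting initial reaction rates against inhibitor concentration to the Morrison equation. Rates were taken from the linear phase of fluorogenic substrate phosphorylation (AQT0101 for ALK and ROS1, AQT0104 for TRKA; 26 μM in substrate solution with 2 mM ATP), monitored at 485 nm over 120 min at 30° C.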

[1] = target: T3, Ba/F3 cells EML4-ALK wt (variant 1) (Homo sapiens, UniProt Q9UM73); experiment: Ba/F3 cell proliferation assay, EML4-ALK wt (variant 1); format: cell-based; settings: 72 hours, CellTiter-Glo
T3 construct: echinoderm microtubule-associated protein-like 4 (EML4) gene and the ALK tyrosine kinase domain; host or cells: Ba/F3 (RIKEN), retroviral pMSCV-puro; the other entry of the earlier key: EML4 (Q9HC35, Echinoderm microtubule-associated protein-like 4)
T3 sequence (Q9UM73 with tags, fused parts or gaps): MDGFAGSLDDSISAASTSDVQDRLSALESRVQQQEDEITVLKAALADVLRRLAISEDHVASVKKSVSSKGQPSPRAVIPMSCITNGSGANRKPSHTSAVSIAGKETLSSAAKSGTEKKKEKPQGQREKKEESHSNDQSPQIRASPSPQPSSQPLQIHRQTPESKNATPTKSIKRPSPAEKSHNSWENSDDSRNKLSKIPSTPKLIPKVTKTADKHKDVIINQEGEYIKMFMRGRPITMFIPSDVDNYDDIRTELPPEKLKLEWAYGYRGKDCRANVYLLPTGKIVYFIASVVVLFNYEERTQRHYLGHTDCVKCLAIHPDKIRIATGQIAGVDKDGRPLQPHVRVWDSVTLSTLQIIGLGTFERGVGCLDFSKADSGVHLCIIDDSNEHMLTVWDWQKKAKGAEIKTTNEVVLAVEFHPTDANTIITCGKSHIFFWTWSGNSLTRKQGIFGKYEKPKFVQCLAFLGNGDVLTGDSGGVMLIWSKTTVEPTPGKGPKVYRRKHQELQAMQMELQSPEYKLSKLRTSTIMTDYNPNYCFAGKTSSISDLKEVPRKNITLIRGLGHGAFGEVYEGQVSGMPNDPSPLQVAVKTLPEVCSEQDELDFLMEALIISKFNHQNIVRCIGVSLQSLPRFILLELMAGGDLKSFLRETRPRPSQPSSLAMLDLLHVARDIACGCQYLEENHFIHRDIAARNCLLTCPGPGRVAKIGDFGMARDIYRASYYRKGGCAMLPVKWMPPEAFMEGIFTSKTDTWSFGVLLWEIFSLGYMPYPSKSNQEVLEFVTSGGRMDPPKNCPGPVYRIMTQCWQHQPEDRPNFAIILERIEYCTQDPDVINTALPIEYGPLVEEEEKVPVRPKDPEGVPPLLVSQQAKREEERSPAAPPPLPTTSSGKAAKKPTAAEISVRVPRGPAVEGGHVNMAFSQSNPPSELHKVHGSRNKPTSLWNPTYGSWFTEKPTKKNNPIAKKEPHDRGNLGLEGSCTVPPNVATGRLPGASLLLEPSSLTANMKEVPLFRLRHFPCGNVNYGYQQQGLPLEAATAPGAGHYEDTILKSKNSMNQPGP
How it was run: (§2)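 IL-3-independent Ba/F3 lines stably expressing the fusion kinase (retroviral, puromycin-selected), 1,000 cells/well, treated with 3-fold compound dilutions for 72 h. Viability by CellTiter-Glo luminescence; IC50 from four-parameter logistic fit of percent inhibition.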

ALK L1196M/G1202R = target: T4, ALK L1196M/G1202R (Homo sapiens, UniProt Q9UM73, G1202R/L1196M); experiment: Biochemical kinase assay, ALK L1196M/G1202R kinase domain; settings: apparent inhibitory constant, Morrison equation; ATP 2 mM in substrate solution; read-out: ALK-L1196M-G1202R Ki^app
T4 construct: purchased SignalChem A19-12NG
T4 sequence (Q9UM73 1116-1392 L1196M/G1202R limits assumed): as the sequence (Q9UM73 1116-1392 limits assumed) above, with L81M, G87R counted along it
How it was run: (§3)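 Kinase domains (in kinase solution: ROS1-G2032R 0.5 nM, ROS1-wt 0.6 nM, TRKA 1 nM, ALK L1196M/G1202R 3 nM) were mixed with compound and a substrate solution of 2 mM ATP plus 26 μM fluorogenic AQT0101 (ALK, ROS1) or AQT0104 (TRKA) in HEPES pH 7.5/MgCl2. Fluorescence was followed for 120 min at 30° C; Ki^app was obtained by Morrison fit of initial rates.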

[2] = target: T5, Ba/F3 cells CD74-ROS1 wild-type (wt) (Homo sapiens, UniProt P08922); experiment: Ba/F3 cell proliferation assay, CD74-ROS1 wild-type; format: cell-based; settings: 72 hours, CellTiter-Glo
T5 construct: fusion of the C-terminus of ROS1 with the N-terminus of various partner proteins; host or cells: Ba/F3 (RIKEN), retroviral pMSCV-puro; the other entry of the earlier key: CD74 (P04233, HLA class II histocompatibility antigen gamma chain)
T5 sequence (P08922 1883-2347 limits assumed): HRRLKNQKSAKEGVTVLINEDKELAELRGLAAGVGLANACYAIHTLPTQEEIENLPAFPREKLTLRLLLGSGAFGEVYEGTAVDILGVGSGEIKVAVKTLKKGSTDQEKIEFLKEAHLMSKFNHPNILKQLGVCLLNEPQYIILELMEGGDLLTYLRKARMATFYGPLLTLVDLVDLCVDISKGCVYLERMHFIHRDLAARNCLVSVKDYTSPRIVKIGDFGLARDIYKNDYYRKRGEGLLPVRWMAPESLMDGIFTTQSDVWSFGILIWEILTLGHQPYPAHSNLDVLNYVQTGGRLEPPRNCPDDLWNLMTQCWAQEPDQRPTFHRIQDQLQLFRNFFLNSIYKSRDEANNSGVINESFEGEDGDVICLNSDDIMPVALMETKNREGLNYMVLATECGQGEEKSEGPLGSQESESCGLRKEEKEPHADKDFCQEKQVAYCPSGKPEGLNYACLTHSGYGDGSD
How it was run: (§4)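 Viability read by CellTiter-Glo luminescence after 72 h exposure to 3-fold serial compound dilutions, four-parameter logistic fitting giving IC50.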

Ba/F3 cells TPM3-TRKA = target: T6, Ba/F3 cells TPM3-TRKA (Homo sapiens, UniProt P04629); experiment: Ba/F3 cell proliferation assay, TPM3-TRKA; format: cell-based; settings: 72 hours, CellTiter-Glo, read-out: TPM3-NTRK1-wt IC50
T6 construct: host or cells: Ba/F3 (RIKEN), retroviral pMSCV-puro; the other entry of the earlier key: TPM3 (P06753, Tropomyosin alpha-3 chain)
T6 sequence (P04629 510-796 limits assumed): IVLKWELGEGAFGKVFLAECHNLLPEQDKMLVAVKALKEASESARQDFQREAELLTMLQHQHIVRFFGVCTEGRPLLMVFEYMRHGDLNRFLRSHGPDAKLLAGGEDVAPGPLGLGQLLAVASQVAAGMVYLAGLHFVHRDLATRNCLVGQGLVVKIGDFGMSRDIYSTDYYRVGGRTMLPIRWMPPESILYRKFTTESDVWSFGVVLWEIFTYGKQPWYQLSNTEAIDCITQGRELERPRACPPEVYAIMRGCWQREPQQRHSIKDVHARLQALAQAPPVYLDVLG
How it was run: as §2

ROS1-wt = target: T7, ROS1-wt (Homo sapiens, UniProt P08922); experiment: Biochemical kinase assay, ROS1-wt kinase domain; settings: apparent inhibitory constant, Morrison equation; ATP 2 mM in substrate solution; read-out: ROS1-wt Ki^app
T7 construct: purchased Carna 08-163
T7 sequence (P08922 1945-2222 limits assumed): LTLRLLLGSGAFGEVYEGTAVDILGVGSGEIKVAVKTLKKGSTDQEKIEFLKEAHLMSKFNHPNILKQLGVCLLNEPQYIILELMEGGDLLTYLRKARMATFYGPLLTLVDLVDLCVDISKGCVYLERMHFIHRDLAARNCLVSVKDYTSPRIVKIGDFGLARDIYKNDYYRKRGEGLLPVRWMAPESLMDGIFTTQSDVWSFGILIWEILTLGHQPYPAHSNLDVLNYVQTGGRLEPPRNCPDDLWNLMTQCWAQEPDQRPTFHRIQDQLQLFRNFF
How it was run: as §1

[3] = target: T8, Ba/F3 cells EML4-ALK L1196M/G1202R (variant 1) (Homo sapiens, UniProt Q9UM73, G1202R/L1196M); experiment: Ba/F3 cell proliferation assay, EML4-ALK L1196M/G1202R (variant 1); format: cell-based; settings: 72 hours, CellTiter-Glo
T8 construct: echinoderm microtubule-associated protein-like 4 (EML4) gene and the ALK tyrosine kinase domain; host or cells: Ba/F3 (RIKEN), retroviral pMSCV-puro; the other entry of the earlier key: EML4 (Q9HC35, Echinoderm microtubule-associated protein-like 4)
T8 sequence (Q9UM73 with tags, fused parts or gaps L1196M/G1202R): as the sequence (Q9UM73 with tags, fused parts or gaps) above, with L635M, G641R counted along it
How it was run: as §2

TRKA-wt = target: T9, TRKA-wt (Homo sapiens, UniProt P04629); experiment: Biochemical kinase assay, TRKA-wt kinase domain; settings: apparent inhibitory constant, Morrison equation; ATP 2 mM in substrate solution; read-out: TRKA-wt Ki^app
T9 construct: or TRKA-wt (1 nM, BPS Bio, 40280) kinase domains in buffer; purchased BPS Bio 40280
T9 sequence (P04629 510-781 limits assumed): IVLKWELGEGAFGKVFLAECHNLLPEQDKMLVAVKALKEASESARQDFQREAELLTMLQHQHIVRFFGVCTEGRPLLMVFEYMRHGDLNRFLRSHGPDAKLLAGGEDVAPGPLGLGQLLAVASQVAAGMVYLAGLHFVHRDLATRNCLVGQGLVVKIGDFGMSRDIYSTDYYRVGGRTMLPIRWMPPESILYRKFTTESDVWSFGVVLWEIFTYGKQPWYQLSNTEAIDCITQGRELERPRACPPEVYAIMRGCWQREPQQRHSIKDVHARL
How it was run: as §3

[4] = system: TPM3-NTRK1-wt IC50 / primary target IC50 (e.g. CD74-ROS1-wt); experiment: TRKA selectivity in Ba/F3 cells (TRKA potency divided by primary target potency); format: cell-based; settings: for TPM3-NTRK1-wt/CD74-ROS1-G2032R selectivity ratio: TRKA potency / CD74-ROS1-G2032R potency; for TPM3-NTRK1-wt/CD74-ROS1-wt selectivity ratio: TRKA potency / CD74-ROS1-wt potency; for TPM3-NTRK1-wt/EML4-ALK-L1196M-G1202R selectivity ratio: TRKA potency / EML4-ALK-L1196M-G1202R potency; for TPM3-NTRK1-wt/EML4-ALK-wt selectivity ratio: TRKA potency / EML4-ALK-wt potency
Procedure: TRKA selectivity was calculated by dividing a compound's TRKA potency by its primary target potency (e.g. TPM3-NTRK1-wt IC50/CD74-ROS1-wt IC50). Compound selectivity can be interpreted by binning ratio values: bin A for very high selectivity, ratio >30-fold; bin B for high selectivity, ratio >10-fold; bin C for moderate selectivity, ratio ≥1; and bin D for low selectivity, ratio <1. […] (nd=not determined).

[5] = target: T10, Ba/F3 cells CD74-ROS1 G2032R (Homo sapiens, UniProt P08922, G2032R); experiment: Ba/F3 cell proliferation assay, CD74-ROS1 G2032R; format: cell-based; settings: 72 hours, CellTiter-Glo
T10 construct: fusion of the C-terminus of ROS1 with the N-terminus of various partner proteins; host or cells: Ba/F3 (RIKEN), retroviral pMSCV-puro; the other entry of the earlier key: CD74 (P04233, HLA class II histocompatibility antigen gamma chain)
T10 sequence (P08922 1883-2347 G2032R limits assumed): as the sequence (P08922 1883-2347 limits assumed) above, with G150R counted along it
How it was run: as §4

T1 sequence (P08922 1945-2222 G2032R limits assumed): as the sequence (P08922 1945-2222 limits assumed) above, with G88R counted along it

Row | SMILES | Ki (ROS1-G2032R) | Ki (ALK-wt) | IC50 [1] | Ki (ALK L1196M/G1202R) | IC50 [2] | IC50 (Ba/F3 cells TPM3-TRKA) | Ki (ROS1-wt) | IC50 [3] | Ki (TRKA-wt) | TPM3-NTRK1-wt/CD74-ROS1-G2032R selectivity ratio [4] | TPM3-NTRK1-wt/CD74-ROS1-wt selectivity ratio [4] | TPM3-NTRK1-wt/EML4-ALK-L1196M-G1202R selectivity ratio [4] | TPM3-NTRK1-wt/EML4-ALK-wt selectivity ratio [4] | IC50 [5]
1 | Cc1nn(CC2CC2)c2c1Cn1nccc1-c1ccc(F)cc1[C@@H](C)Oc1cc-2cnc1N [Example 45, (19R)-3-(cyclopropylmethyl)-16-fluoro-5,19-dimethyl-20-oxa-3,4,8,9,23-pentaazapentacyclo[19.3.1.0^2,^6.0^8,^12.0^13,^18]pentacosa-1(24),2(6),4,9,11,13,15,17,21(25),22-decaen-22-amine] | < 50 nM | < 50 nM | 0.1 to 50 nM | < 50 nM | 0.1 to 50 nM | > 500 nM | < 50 nM | 50 to 500 nM | > 500 nM | A (bin A for very high selectivity, ratio >30-fold) | A (bin A for very high selectivity, ratio >30-fold) | A (bin A for very high selectivity, ratio >30-fold) | A (bin A for very high selectivity, ratio >30-fold) | 0.1 to 50 nM
2 | C[C@H]1Oc2cc(cnc2N)-c2c(C#N)ncn2Cc2nccnc2-c2ccc(F)cc21 [Example 46, (20R)-23-amino-17-fluoro-20-methyl-21-oxa-4,6,9,12,24-pentaazapentacyclo[20.3.1.0^2,^6.0^8,^13.0^14,^19]hexacosa-1(25),2,4,8(13),9,11,14,16,18,22(26),23-undecaene-3-carbonitrile] | 50 to 500 nM | < 50 nM | 0.1 to 50 nM | 50 to 500 nM | 0.1 to 50 nM | > 500 nM | < 50 nM | 50 to 500 nM | > 500 nM | A (bin A for very high selectivity, ratio >30-fold) | A (bin A for very high selectivity, ratio >30-fold) | A (bin A for very high selectivity, ratio >30-fold) | A (bin A for very high selectivity, ratio >30-fold) | 0.1 to 50 nM
3 | C[C@H]1Oc2cc(cnc2N)-c2c(C#N)cnn2Cc2nccnc2-c2ccc(F)cc21 [Example 47] | > 500 nM | < 50 nM | 0.1 to 50 nM | 50 to 500 nM | 0.1 to 50 nM | > 500 nM | < 50 nM | > 500 nM | > 500 nM | B (bin B for high selectivity, ratio >10-fold) | A (bin A for very high selectivity, ratio >30-fold) | C (bin C for moderate selectivity, ratio ≥1) | A (bin A for very high selectivity, ratio >30-fold) | 50 to 500 nM
4 | C[C@H]1Oc2cc(cnc2N)-c2c(C#N)ncn2Cc2ncc(F)cc2-c2ccc(F)cc21 [Example 48, (20R)-23-amino-11,17-difluoro-20-methyl-21-oxa-4,6,9,24-tetraazapentacyclo[20.3.1.0^2,^6.0^8,^13.0^14,^19]hexacosa-1(25),2,4,8(13),9,11,14,16,1 8,22(26),23-undecaene-3-carbonitrile] | < 50 nM | < 50 nM | 0.1 to 50 nM | < 50 nM | 0.1 to 50 nM | > 500 nM | < 50 nM | 0.1 to 50 nM | 50 to 500 nM | A (bin A for very high selectivity, ratio >30-fold) | A (bin A for very high selectivity, ratio >30-fold) | B (bin B for high selectivity, ratio >10-fold) | A (bin A for very high selectivity, ratio >30-fold) | 0.1 to 50 nM
5 | C[C@H]1Oc2cc(cnc2N)-c2c(C#N)cnn2Cc2ncsc2-c2ccc(F)cc21 [Example 49, (19R)-22-amino-16-fluoro-19-methyl-20oxa-11-thia-5,6,9,23-tetraazapentacyclo[19.3.1.0^2,^6.0^8,^12.0^13,^18]pentacosa-1(24),2,4,8(12),9,13,15,17,21(25),22-decaene-3-carbonitrile] | 50 to 500 nM | < 50 nM | 0.1 to 50 nM | 50 to 500 nM | 0.1 to 50 nM | > 500 nM | < 50 nM | > 500 nM | > 500 nM | B (bin B for high selectivity, ratio >10-fold) | A (bin A for very high selectivity, ratio >30-fold) | C (bin C for moderate selectivity, ratio ≥1) | A (bin A for very high selectivity, ratio >30-fold) | 50 to 500 nM
6 | CCc1noc2c1-c1cnc(N)c(c1)O[C@H](C)c1cc(F)ccc1-c1ncnn1C2 [Example 50, (19R)-3-ethyl-16-fluoro-19-methyl-5,20-dioxa-4,8,9,11,23-pentaazapentacyclo[19.3.1.0^2,^6.0^8,^12.0^13,^18]pentacosa-1(24),2(6),3,9,11,13,15,17,21(25),22-decaen-22-amine] | 50 to 500 nM | < 50 nM | 0.1 to 50 nM | < 50 nM | 0.1 to 50 nM | > 500 nM | < 50 nM | 50 to 500 nM | 50 to 500 nM | B (bin B for high selectivity, ratio >10-fold) | A (bin A for very high selectivity, ratio >30-fold) | C (bin C for moderate selectivity, ratio ≥1) | A (bin A for very high selectivity, ratio >30-fold) | 0.1 to 50 nM
